Laboratory results published in publication PMC3640384, “HPN, a Synthetic Analogue of Bromophenol from Red Alga Rhodomela confervoides: Synthesis and Anti-Diabetic Effects in C57BL/KsJ-db/db Mice” (Marine Drugs, 2013).

Target: T1, protein tyrosine phosphatase 1B (PTP1B) (Homo sapiens, UniProt P18031)
T1 construct: gene PTPN1; Recombinant human GST-PTP1B (hGST-PTP1B)
T1 sequence (P18031 1-435): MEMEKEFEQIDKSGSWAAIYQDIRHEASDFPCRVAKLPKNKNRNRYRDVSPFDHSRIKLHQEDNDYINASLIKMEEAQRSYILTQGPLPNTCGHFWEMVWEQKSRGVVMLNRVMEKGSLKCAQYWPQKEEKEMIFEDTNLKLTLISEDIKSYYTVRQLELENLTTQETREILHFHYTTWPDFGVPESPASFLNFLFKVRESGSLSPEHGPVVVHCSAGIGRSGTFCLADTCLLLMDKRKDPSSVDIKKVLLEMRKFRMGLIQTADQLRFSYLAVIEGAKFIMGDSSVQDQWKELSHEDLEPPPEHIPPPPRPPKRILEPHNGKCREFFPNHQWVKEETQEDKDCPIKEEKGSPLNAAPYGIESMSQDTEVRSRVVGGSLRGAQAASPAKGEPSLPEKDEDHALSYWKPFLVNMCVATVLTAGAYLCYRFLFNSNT
Assay: pNPP hydrolysis assay at […] nm with recombinant GST-PTP1B
Format: biochemical

CC(C)OCc1cc(O)c(O)c(Br)c1Cc1cc(O)c(O)c(Br)c1Br [HPN, 3,4-dibromo-5-(2-bromo-3,4-dihydroxy-6-(isopropoxymethyl)benzyl)benzene-1,2-diol]
IC50: 0.63 µM
